The record followed here is paper PMC3125149, “SCYX-7158, an Orally-Active Benzoxaborole for the Treatment of Stage 2 Human African Trypanosomiasis” (PLoS Neglected Tropical Diseases, 2011).

≈ marks a conversion by molar mass, not a printed value. Read-outs that look alike come from different tables or passages of the source.

Series [1] deals with L929 mouse fibroblast cells. The series is described as follows: Mammalian cell cytotoxicity. Format: cell-based. The protocol:
T. b. brucei was cultured in complete HMI-9 medium,[20] which contains 10% fetal bovine serum (FBS) (Invitrogen, Carlsbad, CA), 10% Serum Plus medium (SAFC Biosciences, Lenexa, KS), and 100 units/mL penicillin and 0.1 mg/mL streptomycin. The trypanosomes were propagated in T-25 vented cap flasks (Corning Inc., Lowell, MA) at 37°C and 5% CO2 with humidity. To ensure log growth phase, trypanosomes were sub-cultured at appropriate dilutions (typically 1∶100) every 2–3 days in fresh HMI-9 medium. T. b. rhodesiense parasites were grown in MEM medium with Earle's salts supplemented with 15% horse serum. For T. b. gambiense, the MEM medium was supplemented with 5% heat-inactivated fetal calf serum (FCS) and 15% human serum.[21] L929 mouse fibroblast cells (ATCC CCL1, American Type Culture Collection, Rockville, MD) were used to determine parasite versus mammalian cell selectivity. Cells were cultured in Dulbecco's Modified Eagle Medium (DMEM), supplemented with 10% FBS, L-glutamine and 100 units/mL penicillin and 0.1 mg/mL streptomycin. MDCKII-hMDR1 cells were generously provided by P. Borst at the Netherlands Kancer Institute. Cells were cultured in DMEM with Glutamax, 10% (v/v) FBS, and 100 units/mL penicillin and 0.1 mg/mL streptomycin. Cell monolayers were fed with cell culture media 24 h after seeding and used for permeability studies 3 days later. […]

For a further series, the system named is T. b. gambiense DAL 1402. The series is described as follows: In vitro compound sensitivity assay (resazurin viability). Format: cell-based. The note with it: Trypanosoma brucei, 72 h incubation, n = 1. The protocol:
(§1) T. b. brucei was cultured in complete HMI-9 medium,[20] which contains 10% fetal bovine serum (FBS) (Invitrogen, Carlsbad, CA), 10% Serum Plus medium (SAFC Biosciences, Lenexa, KS), and 100 units/mL penicillin and 0.1 mg/mL streptomycin. The trypanosomes were propagated in T-25 vented cap flasks (Corning Inc., Lowell, MA) at 37°C and 5% CO2 with humidity. To ensure log growth phase, trypanosomes were sub-cultured at appropriate dilutions (typically 1∶100) every 2–3 days in fresh HMI-9 medium. T. b. rhodesiense parasites were grown in MEM medium with Earle's salts supplemented with 15% horse serum. For T. b. gambiense, the MEM medium was supplemented with 5% heat-inactivated fetal calf serum (FCS) and 15% human serum.[21] L929 mouse fibroblast cells (ATCC CCL1, American Type Culture Collection, Rockville, MD) were used to determine parasite versus mammalian cell selectivity. Cells were cultured in Dulbecco's Modified Eagle Medium (DMEM), supplemented with 10% FBS, L-glutamine and 100 units/mL penicillin and 0.1 mg/mL streptomycin. MDCKII-hMDR1 cells were generously provided by P. Borst at the Netherlands Kancer Institute. Cells were cultured in DMEM with Glutamax, 10% (v/v) FBS, and 100 units/mL penicillin and 0.1 mg/mL streptomycin. Cell monolayers were fed with cell culture media 24 h after seeding and used for permeability studies 3 days later.
(§2) Compounds to be tested were serially diluted in DMSO and added to 96-well plates to give final concentrations ranging from 5 to 0.01 µg/mL. T. b. brucei parasites in the log phase of growth were diluted in HMI-9 media and added to each well for a final concentration of 1×10^4 parasites per well. For the sensitivity assays using T. b. rhodesiense and T. b. gambiense, pararasites were cultured in MEM supplemented with Baltz components (8), diluted in the aforementioned culture media, and added to each well at a density of 1×10^3 cells/well. The final concentration of DMSO was 0.5% and the total volume was 100 µL/well. After a 72 h incubation, resazurin (Sigma-Aldrich, St. Louis, MO) was added to each well [20 µL of 25 mg/100 mL stock in phosphate buffered saline (PBS)] and incubated for an additional 4–6 h.[22] To assess cell viability, fluorescence was quantified using an EnVision Multilabel Plate Reader (Perkin Elmer, Waltham, MA) at an excitation wavelength of 530 nm and emission of 590 nm. Triplicate data points were averaged to generate sigmoidal dose-response curves and determine IC50 values using XLfit curve fitting software from IDBS (Guilford, UK). The IC50 is defined as the amount of compound required to decrease parasite or cell viability by 50% compared to those grown in the absence of the test compound. […]
(Alamar Blue is a resazurin reagent that responds to reducing activity.)

Series [2] has as its system T. b. gambiense ITMAP 141267. The series is described as above. It counts as cell-based. The note with it: Trypanosoma brucei, 72 h incubation, n = 1. How it is done:
as §1, §2

For another series, the system named is T. b. gambiense 40R. The series is described as above. The settings on record: Trypanosoma brucei, 72 h. Format: cell-based. The protocol:
as §1, §2

The next series has as its system T. b. gambiense Drani. Described as above. It counts as cell-based. The note with it: Trypanosoma brucei, 72 h incubation, n = 1. The protocol: as §1, §2
For a further series, the system named is >100 biochemical targets. The series is described as follows: Array of in vitro receptor binding and enzyme inhibition assays. The settings on record: test concentration 10 µM.
The test system of the next series is T. b. brucei. Briefly: Effect of serum on trypanocidal activity. The settings on record: 25% mouse serum or 50% bovine serum. It counts as cell-based. How it is done: as §2
The nature of series [3]: Pharmacokinetics in uninfected rats. Format: in vivo, rat. The settings on record: male, Sprague-Dawley, rat. The protocol:
The blood distribution, CNS disposition and pharmacokinetics of SCYX-7158 were evaluated in infected or non-infected rodents following intravenous or oral administration of compounds. Pharmacokinetics and bioavailability of SCYX-7158 were also evaluated in non-infected beagle dogs and cynomolgus monkeys. In-life phases of non-infected rodent studies were performed at Vivisource (Waltham, MA); studies in non-naïve cynomolgus monkeys were performed by SNBL USA (Everett, WA). Male CD-1 mice (∼25 g), male Sprague-Dawley rats (∼225 g), or male cynomolgus monkeys (∼3–5 kg) were administered test article by either bolus intravenous injection (IV) or oral gavage. Animals in the IV groups received a single 2 mg/kg IV dose. Animals received oral doses of test articles as either single or twice daily doses ranging from 8 mg/kg to 50 mg/kg. All doses were administered as clear colorless solutions in either 50% (v/v) PEG 400: 20% (v/v) ethanol: 30% (v/v) carboxymethylcellulose (0.5% w/v in sterile water for injection) or 2% (v/v) ethanol: 5% (w/v) dextrose in sterile water for injection. […] For pharmacokinetic analysis, blood samples were collected from mice via cardiac puncture under terminal anaesthesia. Serial blood samples were collected from rats via a vascular access port located in the lateral saphenous vein. Mice and rats were euthanized in a CO2 chamber before collection of terminal blood samples or brain tissue. Blood samples were collected into polypropylene tubes containing K2EDTA anticoagulant and stored on ice until centrifuged for the preparation of plasma. Plasma was stored at −70°C. Whole brains were collected following decapitation, blotted dry, placed into polypropylene containers and then immediately frozen at approximately −70°C. CSF was collected from rats via cisterna magna puncture, placed in sterile polypropylene tubes, and stored at approximately −70°C. […] Treated samples were gently mixed at room temperature for 10 min, and then centrifuged at approximately 3000×g for 15 min at 15°C. The supernatants were transferred to 96-well plates or HPLC vials for analysis by LC-MS/MS. Pharmacokinetic parameters were calculated from composite mean plasma or tissue data using non-compartmental (oral and intravenous routes) and bi-exponential (intravenous route) analyses in Microsoft Excel.

For orientation: IC50 means the concentration that gives 50% inhibition. A higher IC50 goes with a need for much substance. A word on the CL/F: it is the apparent clearance, not corrected for the fraction that reaches the circulation. One may read the Cmax as the highest concentration seen after dosing. In general, Tmax refers to the time at which the peak concentration occurs.

Regarding `CC1(C)OB(O)c2cc(NC(=O)c3ccc(F)cc3C(F)(F)F)ccc21` [SCYX-7158], the IC50 is above 50 µg/mL in series [1] (Mouse L929 fibroblast, n = 4); 0.065 µg/mL (≈ 0.177 µM) in the series with T. b. gambiense DAL 1402; 0.092 µg/mL (≈ 0.251 µM) in series [2]; 0.363 µg/mL (≈ 0.989 µM) in the series with T. b. gambiense 40R; 0.129 µg/mL (≈ 0.351 µM) with T. b. gambiense Drani. Also, in series [1] (drug concentrations up to 50 µg/mL), the “inhibition of cell proliferation” value is recorded as “no significant inhibition”. Moreover, the “binding to or inhibition of off-target panel” value in the series with >100 biochemical targets was “did not exhibit any significant binding to, or inhibition of”. In addition, the “attenuation of in vitro IC50” value with T. b. brucei was 3–4 fold. In addition, in series [3] (brain/plasma, 25 mg/kg oral, read-out: brain to plasma AUC0–24 h ratio), the Kp amounted to 0.44. The compound also gave an apparent clearance (CL/F) in series [3] (plasma, 25 mg/kg oral) of 1.53 mL/min/kg. In addition, the Cmax in series [3] (25 mg/kg oral (nominal), plasma, read-out: Cmax) was 18200 ng/mL; in series [3] (25 mg/kg oral, CSF, read-out: Cmax in the CSF), 1080 ng/mL; in series [3] (25 mg/kg oral, brain, read-out: Cmax in the brain), 8500 ng/mL; in series [3] (oral dose of 10 mg/kg SCYX-7158, plasma, read-out: Cmax) it was 14300 ng/mL. Besides, the AUC(0-t) in series [3] (25 mg/kg oral, CSF, read-out: AUC0–24 h in the CSF) came to 14.6 µg·h/mL; in series [3] (25 mg/kg oral, brain, read-out: AUC0–24 h in the brain), 129 µg·h/mL; in series [3] (25 mg/kg oral, plasma, read-out: AUC0–24 h) it was 291 µg·h/mL. The Tmax in series [3] (25 mg/kg oral, plasma) amounted to 8 h.
